Experimental data reported in patent US4707481A, “Pyridazinones, their preparation and use, and bronchospasmolytic medicaments containing pyridazinones” (BYK Gulden Lomberg Chemische Fabrik GmbH, priority 1983, dated 1987).

Tests used:
[1] = tested on: acetylcholine-induced bronchospasm; assay: protective effect against acetylcholine-induced bronchospasm in conscious guinea pigs; assay type: in vivo, guinea pig
Protocol: The figure in parentheses indicates the number out of 10 animals in which the latency period more than tripled.
The latency period is to be understood to be the time from the start of acetylcholine-atomization until clear signs of asthma appeared.
The time from the start of atomization to the onset of clear respiratory exertion (in certain circumstances, hypoxic convulsion in the lateral position) is measured, and is denoted the latency period.
The test substance is administered orally by gavage (standard dose 100 μmol/kg, volume 1 ml of 4% strength methocel suspension in 0.9% strength sodium chloride solution/kg). […] Prolongation of the latency period to at least twice its length is regarded as a protective effect.

[2] = tested on: chain of tracheal rings of guinea pigs; assay: relaxing action on chain of tracheal rings in vitro (bronchospasmolytic action); design: species or system guinea pig; settings: for EC50: Cavia porcellus, Column A, negative logarithm of EC50 in mol/l, 50% of maximum relaxation by (-)isoprenaline, read-out: -lg[EC50] trachea (converted); for [EC40 pot.] left atrium / [EC50] trachea: Column C, measure of organ-selective activity; for [EC50] theophylline / [EC50] substance: Column D, trachea
[3] = tested on: electrically stimulated left atrium of rats; assay: positive inotropic action on electrically stimulated left atrium in vitro; design: species or system rat; settings: for EC40: Rattus norvegicus, Column B, negative logarithm of EC40pot in mol/l, 40% increase in contraction force, read-out: -lg[EC40 pot.] left atrium (converted); for [EC40 pot.] theophylline / [EC40 pot.] substance: Column E, left atrium
Protocol: The positive inotropic action was tested in vitro on the electrically stimulated left atrium of rats (l.a.).
The positive inotropic action of the compounds was tested in vitro on the electrically stimulated left atrium of rats.
Isometric contractions (HSE force sensor K-30; Watanabe recorder, Linear Corder Mark 5) of isolated, left atria from rats (.male., 250-300 g) in an organ bath (10 ml, Tyrode nutrient solution, 31° C., gassing with carbogen, initial tension of the organs 0.25 g) under electrical stimulation (HSE stimulator, 7 V, 3 ms, 2 Hz) were recorded. […] The particular increase in the contraction force is expressed in % of the starting value before administration of the substance. The concentration of the test substance which potentiates the contraction force of the atrium by 40% compared with the starting value [EC40pot. mol/l], expressed by the negative logarithm of the [EC40pot mol/l]: -lg[EC40pot ] serves as a measure of the cardiotonic activity.

left ventricles of cats = assay: heart function dP/dtmax, left ventricle of anesthetized cats; assay type: in vivo, cat
Protocol: The effect of the substances on the contractility of the heart in cats was tested on animals (.male., .female., 3.2 to 5.2 kg) under anesthesia with chloralose/urethane. The change in pressure in the left ventricle of the heart was measured with a tip catheter introduced through the right carotid artery, the R peak in the ECG (bipolar chest lead) initiating a signal to record the end-diastolic pressure; in addition, the maximum rate of pressure rise (dP/dtmax) was determined from the change in pressure. The heart rate was derived from the pressure waves. The test substances were administered intravenously. 2-6 animals were used per measurement, and the arithmetic mean was calculated from the results.

| EC50 [2] | [EC40 pot.] left atrium / [EC50] trachea [2] | [EC50] theophylline / [EC50] substance [2] | SMILES | Doubling of the latency period ([1]; 100 μmol/kg p.o., 30 min) | Tripling of the latency period ([1]; 100 μmol/kg p.o., 30 min, figure in parentheses) | protective effect compared with theophylline ([1]; result in words) | EC40 [3] | Percentage change in dP/dtmax (left ventricles of cats; 3 μmol/kg i.v., 3 min) | Percentage change in dP/dtmax (left ventricles of cats; 3 μmol/kg i.v., 10 min) | Percentage change in dP/dtmax (left ventricles of cats; 3 μmol/kg i.v., 30 min) | Percentage change in dP/dtmax (left ventricles of cats; 3 μmol/kg i.v., 60 min) | Percentage change in dP/dtmax (left ventricles of cats; 10 μmol/kg i.v., 3 min) | Percentage change in dP/dtmax (left ventricles of cats; 10 μmol/kg i.v., 10 min) | Percentage change in dP/dtmax (left ventricles of cats; 10 μmol/kg i.v., 30 min) | Percentage change in dP/dtmax (left ventricles of cats; 10 μmol/kg i.v., 60 min) | [EC40 pot.] theophylline / [EC40 pot.] substance [3] |
| --- | --- | --- | --- | --- | --- | --- | --- | --- | --- | --- | --- | --- | --- | --- | --- | --- |
| 3.09 µM | 324 | 43.7 | CCCOc1ccc(-c2ccc(=S)[nH]n2)cc1OC [Serial No. 13, 6-(3-methoxy-4-n-propoxyphenyl)-3[2H]pyridazinethione] | 6 N of 10 animals | 6 N of 10 animals | greater protective effect | > 1000 µM |  |  |  |  |  |  |  |  |  |
|  |  |  | Cn1c(=O)c2[nH]cnc2n(C)c1=O.NCCN [Theophylline-ethylenediamine, theophylline-ethylenediamine, reference compound] |  |  |  |  | 8% | 2% | 2% | 1% | 62% | 30% | 22% | 26% |  |
| 1.41 µM | 1.5 | 95.5 | CCOc1cc(-c2ccc(=S)[nH]n2)ccc1OC [compound 14] |  |  |  | 2.09 µM |  |  |  |  |  |  |  |  | 200 |
| 7.24 µM | 0.4 | 18.6 | COc1ccc(-c2ccc(=S)[nH]n2)cc1OC(C)C [compound 17] |  |  |  | 2.75 µM |  |  |  |  |  |  |  |  | 151 |
| 4.07 µM | 0.6 | 33.1 | COc1ccc(-c2ccc(=S)[nH]n2)cc1OCC(C)C [compound 18] |  |  |  | 1.58 µM |  |  |  |  |  |  |  |  | 166 |
